This is an account of results in PMC10347550, “Cyclic Ruthenium-Peptide Conjugates as Integrin-Targeting Phototherapeutic Prodrugs for the Treatment of Brain Tumors” (Journal of the American Chemical Society, 2023).

Where two headings read alike, the source gives them in different places.

Data set [1] has as its target T1, integrin αIIbβ3 (Homo sapiens, UniProt P05106+P08514).
T1 construct: Purified human platelet glycoprotein integrin αIIbβ3; purchased Enzyme Research Laboratories GP2b3a; host or cells: human platelets (natural source)
To be noted: literature values; read-out: Kd for the same integrin heterodimers (αIIbβ3); cited from earlier work. As to the method: Since the ruthenium complexes were designed to target integrins, their interaction with the protein should be a key process for recognition, uptake, and toxicity. To check whether the ruthenium-coordinated peptide still retained the interaction binding affinity with the targeted integrin, the association constant (Ka) of both isomers of [1]Cl2 to integrin αIIbβ3 was measured using luminescence spectroscopy. In this assay, the emission intensity from aromatic residues (tryptophan, tyrosine, and phenylalanine) in integrin αIIbβ3 (λemi = 345 nm) was monitored upon the addition of different concen ...

The test system of data set [2] is A549 cells. Description: 2D cytotoxicity assay, 24 h DLI & no wash, SRB endpoint. Particulars: A549 2D monolayer, not washed, n = 3. The class given is cell-based, human. The protocol: (§1) For each complex, two identical plates were prepared, one of which was irradiated with light, while the other was used as a dark control. […] Finally, at t = 96 h, 100 μL of cold trichloroacetic acid (10% w/v) was added to each well to fix the cells, and all plates were then transferred to a 4 °C refrigerator for 48 h before performing an SRB cell quantification endpoint assay.[72] Trichloroacetic acid was first removed and each plate was gently washed with demi water 3–5 times. Then, each well was dried in the air, and 100 μL of 0.6% SRB solution (0.6% w/v in 1% v/v acetic acid/H2O solution) was added into each well where it was allowed to stain for 30 min. Then, the plates were washed 3–5 times using an acetic acid solution (1% v/v). Once the plate was washed it was allowed to dry overnight. Then, 200 μL of 10 mM Tris base buffer was added to each well and the plate was allowed to sit on an orbital shaker for 0.5–16 h. After mixing, the absorbance of each well was determined by an M1000 Tecan Reader, reading at 510 nm. All experiments were conducted in independent biological triplicate. The obtained data were analyzed with Graphpad Prism 5 using the dose–response two-parameter Hill slope equation (eq 1) to obtain the half-maximal effective concentrations EC50 (defined as the concentration of drug that kills 50% of cells, compared to the untreated control). [drawing 1] 1

Data set [3] has as its system PC-3 cells. The description is as above. The class given is cell-based, human. Particulars: PC-3 2D monolayer, not washed, SRB at 96 h, n = 3. As to the method: as §1
Data set [4] relates to U87MG cells. The description is as above. To be noted: U87MG 2D monolayer, not washed, SRB at 96 h, n = 3. Format: cell-based, human. The protocol: as §1
Data set [5] has as its system U87MG spheroids. Description: 3D tumor spheroid viability assay, CellTiter-Glo 3D. Format: cell-based, human. Particulars: U87MG 3D spheroids, CellTiter-Glo 3D at 96 h, n = 3. The protocol: The spheroids were incubated further under normoxia. […] After 30 min of shaking on an IKA Vibrax shaker at 500 rpm at room temperature, the luminescence in each well was measured with a Tecan microplate reader. […] All experiments were conducted in three biologically independent replicates.
Background: In ATP-based viability assays light output follows the ATP content of the culture.

For data set [6], the system named is U87MG cells. Description: Apopxin/Nuclear Green DCS1 double-staining cell death mode study. The class given is cell-based, human. Particulars: 20 μM, 24 h incubation, 1 h after green light (13.1 J/cm^2), flow cytometry. As to the method:
After 24 h of incubation, one plate labeled light was irradiated for 20 min using 520 nm green light (13.1 J/cm^2), and then both plates were allowed to incubate further for 1, 2, 6, or 24 h in a normoxia incubator. After incubation, the cells were trypsinized, collected, and washed with cold PBS twice. […] Cells after staining were detected by flow cytometry (CytoFLEX flow cytometer) immediately. Control groups with only assay buffer, only buffer and Apopxin Deep Red Indicator, only buffer and Nuclear Green DCS1, and all three were included to be used for gating during data analysis. Parameters APC (638 nm excitation, 660/10 nm emission) and FITC (488 nm excitation, 525/40 nm emission) were used considering their similar excitation/emission wavelength with two detectors Apopxin Deep Red Indicator, Ex/Em = 630/660 nm (apoptosis), and Nuclear Green DCS1, Ex/Em = 490/520 nm (necrosis).

Data set [7] relates to U87MG cells. Description: Intracellular ROS generation, CellROX Deep Red, flow cytometry. To be noted: 15 µM, 24 h. In general terms: In flow cytometry, cells or beads pass a laser one at a time.
Method: The generation of ROS (reactive oxygen species) in U87MG cells was measured using a ROS deep red fluorescence indicator (Abcam, ab186029). U87MG (1 × 10^5, 1 mL) were seeded into 12-well plates and incubated for 24 h in the dark under normoxia. The cells were then treated with 15 μM complexes with Opti-MEM, Λ-[1]Cl2, Δ-[1]Cl2, cisplatin, or Rose Bengal. There are two groups for each drug (dark + light). After 24 h of incubation under normoxia, the plate was washed with cold PBS once, and cells were trypsinized, harvested, and then resuspended in 150 μL of PBS. The cell suspension from the centrifuge tubes was transferred to 96-round-bottom well plates (Thermo Scientific, 268200), and the light group was irradiated for 20 min with 520 nm light (dose = 13.1 J/cm^2). After which, the Cellular ROS Deep Red dye (abcam, ab186029) was added with 1000× dilution, and cells were further stained for 1 h. Untreated cells were maintained as negative controls, whereas a 250 μM tBHP solution in Opti-MEM complete was administered as a positive control for ROS. The levels of intracellular ROS were then determined using the CytoFLEX flow cytometer. Forward versus side scatter (FSC vs SSC) gating was used to select the population of interest and avoid cell debris. A forward scatter height (FSC-H) vs forward scatter area (FSC-A) gating was used for doublet exclusion. Fluorescence measurements were acquired with the APC-A (638 nm excitation, 660/10 nm emission) channel given the known excitation/emission wavelengths of the ROS Deep Red dye (650/675 nm, respectively). All flow cytometry data were processed using FlowLogic 8.5 software.
Data set [8] is described as follows: Octanol-water partition coefficient (log P). Particulars: shake-flask, octanol-saturated water / water-saturated octanol, shaken 24 h in the dark, room temperature; Ru in water phase by ICP-MS; ± SD from 4 concentration points. The class given is physicochemical. As to the method: Each complex was first dissolved in octanol-saturated water (0.5 mM, 500 μL) and centrifuged (2000 rpm, 5 min) to isolate the undissolved solid. 450 μL of the supernatant was taken out as the stock solution; after that, 5, 10, 50, 100, and 150 μL of solution were added to the 15 mL tube, and more octanol-saturated water was added to adjust the final volume to 1 mL. 1 mL of water-saturated octanol was added further, and the tubes were mildly shaken (Gesellschaft für Labortechnik mbH, type3016) for 24 h under dark conditions. After that, the solutions were centrifuged for 5 min at 2000 rpm at room temperature, and 0.5 mL of the water phase (below phase) was moved to a 15 mL centrifuge tube by an Eppendorf pipette. Then, 0.1 mL of 65% HNO3 was added into the tube using an organic pipette gun, and each solution was shaken for 1 h. 9.9 mL of MilliQ water was added into each tube, making a total volume of 10 mL. To detect the Ru content of the stock solution, 10 μL of each stock solution was mixed with 0.490 mL of 65% HNO3, and the mixture was shaken for 1 h. Then, […] of MilliQ water was added to the tube, making a total volume of 10 mL. ICP-MS measurement was performed using a NexION 2000 from PerkinElmer. The ruthenium content in each well was obtained in ppb. The partition coefficients (log P) were calculated using the following eq 3 [drawing 3] 3
where [complex]total is the concentration of the complex in the control sample (where no water-saturated octanol was added) and [complex]water is the concentration of the complex in the aqueous layer.

For data set [9], the system named is ITGAV knockdown U87MG cells (U87MG-kd). Kind of data set: Cellular Ru uptake by ICP-MS, 2 h. Particulars: 10 μM, dark, normoxia, n = 3. Format: cell-based, human. The protocol:
(§2) The uptake studies in U87MG and U87MG-kd cell lines were conducted as follows: 2 × 10^5 cells were cultured in 6-well plates for 24 h in Opti-MEM (2 mL), after which cells were incubated with Δ-[1]Cl2 or Δ-[3]Cl2 (10 μM) for 2 h, washed with cold PBS twice, harvested, concentrated in 200 μL of PBS, and counted using trypan blue and a cell counter (Bio-Rad). Finally, cell pellets were collected in 1.5 mL Eppendorf tubes after removing additional PBS by centrifuging at 500g; 0.25 mL of 65% HNO3 was then added to each tube, and all tubes were kept at room temperature (RT) overnight. The cell lysates were transferred to 15 mL centrifuge tubes (Biologix) and filled with 4.75 mL of MilliQ H2O.
(§3) The ruthenium concentration was measured in each sample by ICP-MS (NexION 2000, PerkinElmer), providing the metal content in each well in ppb. Combining the cell numbers and Ru uptake, averaging over technical triplicates, the ruthenium uptake values were finally expressed in μg Ru/million cells.

Data set [10] deals with wild-type U87MG cells (U87MG-wt). Kind of data set: Cellular Ru uptake by ICP-MS, 2 h. To be noted: 10 μM, dark, normoxia, n = 3. Format: cell-based, human. As to the method:
as §2, §3

[11] abbreviates: 1% O2, dark, 24 h treatment, read-out: EC50,dark.
[12] abbreviates: 1% O2, 520 nm, 7.22 mW/cm^2, 13.1 J/cm^2, 30 min, read-out: EC50,light.
[13] abbreviates: 21% O2, dark, 24 h treatment, read-out: EC50,dark.
Where [14] appears, read: 21% O2, 520 nm, 10.9 mW/cm^2, 13.1 J/cm^2, 20 min, read-out: EC50,light.

As usually defined, the Kd is the constant that tells how readily two partners part at equilibrium. For fibrinogen, in data set [1], the Kd is 0.03 µM.
As usually defined, the EC50 is the concentration needed to bring the measured effect to its halfway point. With `N.N.[Cl][Pt][Cl]` [cisplatin, reference compound], the EC50 in [2] (1% O2, dark, 24 h treatment, SRB at 96 h, read-out: EC50,dark) is 6.5 µM; in data set [2] (1% O2, 520 nm, 7.22 mW/cm^2, 13.1 J/cm^2, 30 min, SRB at 96 h, read-out: EC50,light) it was 6.3 µM; in data set [2] (21% O2, dark, 24 h treatment, SRB at t = 96 h, read-out: EC50,dark), 2.3 µM; in data set [2] (21% O2, 24 h treatment, 520 nm, 10.9 mW/cm^2, 13.1 J/cm^2, 20 min, SRB at 96 h, read-out: EC50,light), 2.4 µM; in [3] (setting [11]), 23.1 µM; in data set [3] (setting [12]), 25.8 µM. Further, the EC50 in data set [3] (setting [13]) is 4.5 µM; in [3] (setting [14]), 4.1 µM; in [4] (setting [11]) it was 13 µM; in data set [4] (setting [12]), 12.5 µM; in data set [4] (setting [13]), 2.8 µM; in data set [4] (setting [14]), 4 µM. In addition, the EC50 in data set [5] (setting [13]) came out at 8.6 µM; in data set [5] (21% O2, green light after 24 h treatment, read-out: EC50,light) it was 7.9 µM. The cell death mode entry in [6] is reported as “mainly died via apoptosis”. Moreover, in [7], the “Ratio of L/D (light/dark ROS ratio)” value is 0.81.
With “[Ru(Ph2phen)2(κ^S,κ^N-Ac-MRADH-NH2)]Cl2 (sidechain bridge or staple) [Δ-[3]Cl2, Gly-Ala analogue of [1]Cl2]”, the “log P (octanol-water partition coefficient)” value in data set [8] stood at 0.02 ± 0.05. In addition, the “uptake amount compared to U87MG-wt cells” value in data set [9] was “taken up in similar amounts”. In data set [10], the “cellular uptake compared to Δ-[1]Cl2” value was “significantly lower”.
